Columns and labels:
[1] = DTNB assay: rate of disulfide bond reduction; type: biochemical; conditions: for DTNB reducing kinetics as a function of pH: pH range relevant for mucosal surfaces (pH 6.0-7.5); for DTNB reducing kinetics as a function of pH / reducing kinetic for DTNB reduction compared with NAC and DTT: FIG. 3; for reducing kinetic for DTNB reduction compared with NAC and DTT: comparison with thiol reducing agents
Excerpt: FIG. 2. Spectrophotometric studies monitored formation of reduced DTNB over time. Reaction rates, generated using second order kinetics, for each compound were compared as a function of reducing agent to substrate (DTNB) concentration at pH 6.5.
FIG. 3. Spectrophotometric studies monitored formation of reduced DTNB over time. Reaction rates, generated using second order kinetics, for each compound were over a pH range relevant for mucosal surfaces.
Mucin Agarose Gel Western Blots: Reducing agent stock solutions are made up in 100 mM Potassium Phosphate and are buffered to pH 6.5. The reducing agent stocks are diluted into saliva samples (pH 6.5) to achieve the final desired reducing agent concentration. […] The reactions are quenched using at least a 2-fold excess of N-ethylmaleimide and/or hydrogen peroxide. A 5× concentrated sample loading buffer is diluted into the samples to achieve a 1× concentration (1×TAE, 5% glycerol, 0.1% SDS, Bromophenol Blue). Samples (50 ug) are analyzed by electrophoresis on 0.9% agarose gels using a buffer system consisting of 1×TAE/0.1% SDS. […] Unreduced and reduced Muc5B are visualized using a polyclonal antibody directed towards Muc5B and a Protoblot II AP System with stabilized substrate. […] Each compound solution (10 uL) is added apically to primary hBEs for 6 hrs. The hBEs are lysed in RIPA buffer supplemented with protease inhibitor cocktail (Roche) and 1 mM PMSF. The samples are normalized to contain the same total amount of protein followed by addition of 2×SDS sample buffer (100 mM Tris-HCl (pH6.8)/4% SDS/0.05% Bromophenol Blue/20% glycerol). Samples (20 […]g) are analyzed by electrophoresis on a 10% SDS-PAGE gel and transferred to a nitrocellulose membrane. BiP levels are visualized using a polyclonal antibody directed towards BiP and the LiCor Odyssey imaging detection system. Thapsigargin (TG, 2.5 µM) served as a positive control for BiP induction. DTNB ASSAY: This assay determines the rate which a mucolytic agent can reduce a disulfide bond using 5,5-Dithiobis(2-nitrobenzoic acid). DTNB in various pH buffers and allows comparison of the kinetic rates of reducing agents. […] Max Abs412 was measured and then utilized to calculate the activity concentration.
The kinetics of disulfide bond reduction can be quantitative measured using 5,5′-dithiobis-(2-nitrobenzoic acid) (DTNB or Ellman's Reagent). DTNB contains an internal disulfide bond, which when reduced, gives rise to two molecules of TNB that can be monitored by […] at 412 nm.

Muc5B = Muc5B (Homo sapiens, UniProt Q9HC84); assay: Mucin agarose gel western blot: Muc5B reduction in saliva; conditions: 30 minute incubation, FIG. 4; for concentration producing Muc5B (mucin) reduction by downward gel shift: pH 6.5, agarose gel/western blot
Description: Analysis of Muc5B reduction by western blot. Saliva was incubated with reducing agents at indicated concentrations for 30 min prior to agarose gel electrophoresis/western blot visualization of unreduced and reduced Muc5B. Both saliva and compounds were buffered to pH 6.5.
Quantitation of Muc5B reduction by western blot.
Saliva samples were aliquoted and incubated with the indicated concentrations of reducing agents (FIG. 4). After a 30 minute incubation, the reducing agents were quenched by the addition of a 10-fold molar excess of N-ethylmaliamide (NEM). The mucus samples were separated by agarose gel electrophoresis and analyzed by western blot.

[2] = Hydrogen peroxide incubation (oxygen free radical scavenging), read out by DTNB reduction; type: biochemical; conditions: excess hydrogen peroxide, 60 second incubation; FIG. 10
Description: FIG. 10. Compound Ib was incubated with excess hydrogen peroxide to assess the ability of Compound Ib to scavenge oxygen free radicals. Following a 60 second incubation with hydrogen peroxide, the activity of Compound Ib was determined by its ability to reduce DTNB (Ellman's Reagent).

Balb-C mice = assay: BALF cellularity after pulmonary aspiration in Balb-C mice; type: in vivo; conditions: pulmonary aspiration (40 ul deposited dose), BALF at 4 and 24 hours post administration, all concentrations tested, FIG. 9
Description: FIG. 9. Balb-C mice were administered Compound Ib at the indicated concentrations via pulmonary aspiration (40 ul deposited dose). Bronchoalveolar lavage fluid (BALF) was collected at 4 and 24 hours post administration and the total cellularity of the BALF was determined.

[3] = Elimination of inhaled 14C-labeled NAC from the lungs in animal studies; type: in vivo; conditions: inhaled or intranasal, 14C-labeled NAC administered by inhalation, animal studies (unpublished observation)
Excerpt: NAC, as a topical pulmonary therapeutic agent, is not optimal for the reduction of mucin disulfide bonds. […] For example, in the pH environment of the airway surface (measured in the range of pH 6.0 to 7.2 in CF and COPD airways), NAC exists only partially in its reactive state as a negatively charge thiolate (Jayaraman S, Song Y, Vetrivel L, Shankar L, Verkman A S. Noninvasive in vivo fluorescence measurement of airway-surface liquid depth, salt concentration, and pH. J Clin Invest. 2001; 107(3):317-24) (FIG. 3). […] The relatively low reducing activity at of NAC physiologic airway pH and a the short half-life of NAC on the lung surface provide an explanation for the lack of strong clinical evidence for effective mucus reduction in mucus obstructive diseases.

Row | concentration producing Muc5B (mucin) reduction by downward gel shift (Muc5B) [mM] | half-life [3] [min] | SMILES | DTNB reducing kinetics as a function of pH [1] | reducing kinetic for DTNB reduction compared with NAC and DTT [1] | DTNB reduction kinetics as a function of reducing agent to DTNB ratio ([1]; increasing concentrations of reducing agent, fixed concentration of DTNB and pH (7.0), FIG. 2) | activity (ability to reduce DTNB) after incubation with hydrogen peroxide [2] | total cellularity of the BALF compared to vehicle (Balb-C mice) | potency of mucus (Muc5B) reduction relative to NAC and DTT (Muc5B)
1 | ≥ 3 |  | O[C@H](CS)[C@H](O)CS (racemic) [DTT, dithiothreitol, reference compound] | pH-dependent increase in DTNB reduction |  |  |  |  | 
2 |  |  | NCCP(c1ccccc1)c1ccccc1 [If, 2-(diphenylphosphino)ethanamine] | fastest reducing kinetic tested | faster reducing kinetic |  |  |  | 
3 | > 100 | ~20 | CC(=O)N[C@@H](CS)C(=O)O [NAC, N-acetyl cysteine, reference compound] | pH-dependent increase in DTNB reduction |  |  |  |  | 

Row | SMILES | concentration producing Muc5B (mucin) reduction by downward gel shift (Muc5B) [mM] | half-life [3] [min] | DTNB reducing kinetics as a function of pH [1] | reducing kinetic for DTNB reduction compared with NAC and DTT [1] | DTNB reduction kinetics as a function of reducing agent to DTNB ratio ([1]; increasing concentrations of reducing agent, fixed concentration of DTNB and pH (7.0), FIG. 2) | activity (ability to reduce DTNB) after incubation with hydrogen peroxide [2] | total cellularity of the BALF compared to vehicle (Balb-C mice) | potency of mucus (Muc5B) reduction relative to NAC and DTT (Muc5B)
4 | O=C(O)CCP(CCC(=O)O)CCC(=O)O [Compound Ib, 3,3′,3″-phosphinetriyltripropanoic acid] | ≥ 1 |  | pH-dependent increase in reducing activity | faster reducing kinetic | fastest reduction kinetics at all ratios of reducing agent to DTNB substrate | decreased the activity | did not increase BALF cellularity compared to the vehicle | more potent
